Measured values taken from patent publication US20250129095A1, “ANNULATED 2-AMINO-3-CYANO THIOPHENES AND DERIVATIVES FOR THE TREATMENT OF CANCER” (Boehringer Ingelheim Int'l GmbH Corp., priority 2021, published 2025).

Columns and labels:
[1] = Caco-2 assay; type: in vitro ADME; conditions: human, 10 μM test compound, pH 7.4; for Papp A→B at 90 min, 10 μM: Caco-2, apical to basolateral (a-b) permeability, read-out: Caco PappAB; for efflux ratio at 90 min, 10 μM: Caco-2 efflux ratio PappBA/PappAB, read-out: Caco ER
From the text: The assay provides information on the potential of a compound to pass the cell membrane, on the extent of oral absorption as well as on whether the compound is actively transported by uptake and/or efflux transporters. Permeability measurements across polarized, confluent Caco-2 cell monolayers grown on permeable filter supports (Corning, catalog #3391) are used. […] The receiver and donor compartments contain 0.25% bovine serum albumine (BSA) in assay buffer. Passive diffusion and/or active transport of compounds across the monolayer is measured in both apical to basolateral (a-b) and basolateral to apical (b-a) direction. a-b permeability (PappAB) represents drug absorption from the intestine into the blood and b-a permeability (PappBA) drug secretion from the blood back into the intestine via both passive permeability as well as active transport mechanisms mediated by efflux and uptake transporters that are expressed on the Caco-2 cells. After a pre-incubation of 25-30 min at 37° C., at predefined time points (0, 30, 60 and 90 min), samples were taken from the receiver and donor compartment, respectively.
Concentrations of test compounds in samples were measured by HPLC/MS/MS, samples from the donor compartment were diluted 1:50 (v:v) with assay buffer, samples from receiver compartment were measured without dilution.
Apparent permeabilities in a-b (PappAB) and b-a (PappBA) directions are calculated according to the formula:
[formula] • Vrec [mL]: buffer volume in receiver compartment • Cdon [pmol/mL]: concentration of test compound in donor compartment at t=0 • ΔCrec: difference between concentrations of test compound in receiver compartment at start and end of incubation time • Δt: Incubation time • Vrec·ΔCrec/Δt [[…]]: Amount of compound transferred to receiver compartment per time • A [cm^2]: filter surface
Caco-2 efflux ratios (ER) are calculated as the ratio of PappBA/PappAB.

[2] = target: T1, KRAS (G12V)::SOS1 (Homo sapiens, UniProt P01116, C118S/G12V); assay: KRAS::SOS1 AlphaScreen binding assay, KRAS G12V
T1 construct: KRAS (G12V) 1-169, N-terminal 6His-tag for purification, cleaved off; 6His-tag (N, cleaved yes); TEV cleavage site; made in house
T1 sequence (P01116 1-169 isoform P01116-2 G12V/C118S): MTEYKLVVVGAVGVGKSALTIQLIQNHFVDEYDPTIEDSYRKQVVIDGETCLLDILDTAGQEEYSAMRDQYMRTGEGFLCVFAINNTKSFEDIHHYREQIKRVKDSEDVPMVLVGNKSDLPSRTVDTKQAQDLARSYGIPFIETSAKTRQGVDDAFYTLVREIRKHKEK
From the text: (§1) This assay can be used to examine the potency with which compounds according to the invention binding to (mutated) KRAS inhibit the protein-protein interaction between SOS1 and (mutated) KRAS e.g., KRAS WT, KRAS G12C, KRAS G12D, KRAS G12V, KRAS G13D. […] Low IC50 values in this assay setting are indicative of strong inhibition of protein-protein interaction between SOS1 and KRAS:
(§2) These assays measure the inhibitory effect of compounds on KRAS mutant protein-protein interactions using the Alpha Screen technology by Perkin Elmer
(§3) The following (mutant) enzyme forms of KRAS and interacting proteins are used in these assays at the given concentrations: • KRAS (G12D) 1-169, N-terminal 6His-tag, C-terminal avi-tag (Xtal BioStructures, Inc.); final assay concentration 10 nM and SOS1 564-1049, N-terminal 229 GST-tag, TEV cleavage site (Viva Biotech Ltd); final assay concentration 5 nM; • KRAS (G12C) 1-169, N-terminal 6His-tag for purification, cleaved off, C-terminal avi-tag, biotinylated, mutations: C51S, C80L, C118S (in house); final assay concentration 7.5 nM and SOS1 564-1049, N-terminal 229 GST-tag, TEV cleavage site (Viva Biotech Ltd); final assay concentration 5 nM; • KRAS (G12V) 1-169, N-terminal 6His-tag for purification, cleaved off, C-terminal avi-tag, biotinylated, TEV cleavage site, mutation: C118S, GDP loaded (in house); final assay concentration 10 nM and SOS1 564-1049, N-terminal 229 GST-tag, TEV cleavage site (Viva Biotech Ltd); final assay concentration 10 nM; • KRAS (G13D) 1-169, N-terminal 6His-tag for purification, cleaved off, C-terminal avi-tag, biotinylated, TEV cleavage site, mutation: C118S, GDP loaded (in house); final assay concentration 10 nM and SOS1 564-1049, N-terminal 229 GST-tag, TEV cleavage site (Viva Biotech Ltd); final assay concentration 10 nM; • KRAS (WT) 1-169, N-terminal 6His-tag for purification, cleaved off, C-terminal avi-tag, biotinylated, TEV cleavage site, mutation: C118S, GDP loaded (in house); final assay concentration 10 nM and SOS1 564-1049, N-terminal 229 GST-tag, TEV cleavage site (Viva Biotech Ltd); final assay concentration 10 nM.
(§4) Test compounds dissolved in DMSO are dispensed onto assay plates (Proxiplate 384 PLUS, white, PerkinElmer; 6008289) using an Access Labcyte Workstation with the Labcyte Echo 55×. For the chosen highest assay concentration of 100 μM, 150 nL of compound solution are transferred from a 10 mM DMSO compound stock solution. A series of eleven fivefold dilutions per compound are transferred to the assay plate, compound dilutions are tested in duplicates. DMSO are added as backfill to a total volume of 150 nL.
(§5) The assays run on a fully automated robotic system in a darkened room below 100 Lux. To 150 nl of compound dilution 10 μl of a mix including KRAS mutant protein, SOS1 (final assay concentrations see above) and GDP nucleotide (Sigma G7127; final assay concentration 10 μM) in assay buffer (1×PBS, 0.1% BSA, 0.05% Tween 20) are added into columns 1-24.
(§6) After 30 minutes incubation time 5 μl of Alpha Screen bead mix in assay buffer are added into columns 1-23. Bead mix consists of AlphaLISA Glutathione Acceptor Beads (PerkinElmer, Cat No AL109) and AlphaScreen Streptavidin Donor Beads (PerkinElmer Cat No 6760002) in assay buffer at a final assay concentration of 10 μg/ml each.
(§7) Plates are kept at room temperature in a darkened incubator. After an additional 60 minutes incubation time the signal is measured in a PerkinElmer Envision HTS Multilabel Reader using the AlphaScreen specs from PerkinElmer.
(§8) Each plate contains up to 16 wells of a negative control depending on the dilution procedure (platewise or serial) (DMSO instead of test compound; with KRAS mutant::SOS1 GDP mix and bead mix; column 23) and 16wells of a positive control (DMSO instead of test compound; with KRAS mutant::SOS1 GDP mix w/o bead mix; column 24).
(§9) As internal control known inhibitors of KRAS mutant::SOS1 interaction can be measured on each compound plate. […]

[3] = target: T2, KRAS (WT)::SOS1 (Homo sapiens, UniProt P01116, C118S); assay: KRAS::SOS1 AlphaScreen binding assay, KRAS WT
T2 construct: KRAS (WT) 1-169, N-terminal 6His-tag for purification, cleaved off; 6His-tag (N, cleaved yes); TEV cleavage site; made in house
T2 sequence (P01116 1-169 isoform P01116-2 C118S): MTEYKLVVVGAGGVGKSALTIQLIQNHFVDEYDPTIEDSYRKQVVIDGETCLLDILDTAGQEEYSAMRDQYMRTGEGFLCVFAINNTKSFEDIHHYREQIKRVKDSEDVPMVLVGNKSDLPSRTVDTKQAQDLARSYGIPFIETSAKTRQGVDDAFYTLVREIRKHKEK
From the text: as §1, §2, §3, §4, §5, §6, §7, §8, §9

| Papp A→B at 90 min, 10 μM [1] [×10⁻⁶ cm/s] | efflux ratio at 90 min, 10 μM [1] | IC50 [2] [nM] | IC50 [3] [nM] | Compound |
| --- | --- | --- | --- | --- |
| 2 | 14.5 | – | – | C[C@H](Oc1cc(Nc2ccncn2)nc(-c2noc3c2CCC[C@@]32CCCc3sc(N)c(C#N)c32)n1)[C@@H]1CCCN1C [II-15] |
| – | – | 3 | – | C[C@H](Oc1cc(OCC2(N(C)C)COC2)nc(-c2onc3c2CCC[C@@]32CCCc3sc(N)c(C#N)c32)n1)[C@@H]1CCCN1C [Example I-8] |
| – | – | 3 | 10 | C[C@H](Oc1cc(Nc2cnccn2)nc(-c2noc3c2CCC[C@@]32CCCc3sc(N)c(C#N)c32)n1)[C@@H]1CCCN1C [II-14] |
| 2.5 | 13.6 | 2 | 4 | COc1c(OCC2(N(C)C)COC2)nc(-c2noc3c2CCC[C@@]32CCCc3sc(N)c(C#N)c32)nc1O[C@@H](C)[C@@H]1CCCN1C [II-25] |
| 0.8 | 50.7 | 2 | 2 | C[C@H](Oc1cc(O[C@@H]2CNC2(C)C)nc(-c2noc3c2CCC[C@@]32CCCc3sc(N)c(C#N)c32)n1)[C@@H]1C[C@@H](F)CN1C [II-31] |
| 17 | 1.5 | – | 3 | C[C@H](Oc1cc(Oc2cncnc2)nc(-c2noc3c2CCC[C@@]32CCCc3sc(N)c(C#N)c32)n1)[C@@H]1CCCN1C [II-1] |
| 3.9 | 5 | 2 | 8 | C[C@H](Oc1cc(Nc2ncccn2)nc(-c2noc3c2CCC[C@@]32CCCc3sc(N)c(C#N)c32)n1)[C@@H]1CCCN1C [II-17] |
| – | – | – | 10 | C[C@H]1CN(C)CCCN1c1cc(O[C@@H]2CNC2(C)C)nc(-c2noc3c2CCC[C@@]32CCCc3sc(N)c(C#N)c32)n1 [II-28] |
| 5.2 | 3.1 | 2 | 7 | C[C@H](Oc1cc(Nc2ncco2)nc(-c2noc3c2CCC[C@@]32CCCc3sc(N)c(C#N)c32)n1)[C@@H]1CCCN1C [II-13] |
| – | 1.4 | – | – | C[C@H](Oc1cc(OCC2(N(C)C)CC2)nc(-c2noc3c2CCC[C@@]32CCCc3sc(N)c(C#N)c32)n1)[C@@H]1CCCN1C [II-21] |
| 1.4 | 17.9 | – | – | C[C@H](Oc1cc(Nc2cccnn2)nc(-c2noc3c2CCC[C@@]32CCCc3sc(N)c(C#N)c32)n1)[C@@H]1CCCN1C [II-18] |
| 4.3 | 7.7 | – | – | COC[C@H](C)Nc1cc(O[C@@H](C)[C@@H]2CCCN2C)nc(-c2onc3c2CCC[C@@]32CCCc3sc(N)c(C#N)c32)n1 [Example I-5] |
| 0.2 | 132 | 3 | 2 | C[C@H](Oc1cc(O[C@@H]2CNC2(C)C)nc(-c2noc3c2CCC[C@@]32CCCc3sc(N)c(C#N)c32)n1)[C@@H]1CCCN1C [II-9] |
| 2.6 | 15.5 | 2 | 2 | C[C@H](Oc1cc(OCC2(N(C)C)COC2)nc(-c2noc3c2CCC[C@@]32CCCc3sc(N)c(C#N)c32)n1)[C@@H]1CCCN1C [II-22] |
| – | 2.5 | – | – | C[C@H](Oc1cc(Nc2ccccn2)nc(-c2onc3c2CCC[C@@]32CCCc3sc(N)c(C#N)c32)n1)[C@@H]1CCCN1C [Example I-6] |
| 18 | 1.3 | – | 2 | C[C@H](Oc1cc(Oc2cncnc2)nc(-c2onc3c2CCC[C@@]32CCCc3sc(N)c(C#N)c32)n1)[C@@H]1CCCN1C [Example I-3] |
| 0.9 | 25.5 | 2 | 4 | C[C@H](Oc1cc(O[C@@H]2CNC[C@@H]2F)nc(-c2noc3c2CCC[C@@]32CCCc3sc(N)c(C#N)c32)n1)[C@@H]1CCCN1C [II-29] |
| 14 | 1.4 | – | – | COCCOc1cc(O[C@@H](C)[C@@H]2CCCN2C)nc(-c2noc3c2CCC[C@@]32CCCc3sc(N)c(C#N)c32)n1 [II-5] |
| – | – | 1 | 4 | C[C@H](Oc1cc(Oc2cccnc2)nc(-c2onc3c2CCC[C@@]32CCCc3sc(N)c(C#N)c32)n1)[C@@H]1CCCN1C [Example I-2] |
| – | 3.1 | – | – | C[C@H](Oc1cc(Nc2ccccn2)nc(-c2noc3c2CCC[C@@]32CCCc3sc(N)c(C#N)c32)n1)[C@@H]1CCCN1C [II-16] |
| 7.6 | 3 | – | – | C[C@H](Oc1cc(N(C)C)nc(-c2noc3c2CCC[C@@]32CCCc3sc(N)c(C#N)c32)n1)[C@@H]1CCCN1C [II-10] |
| – | – | 10 | – | C[C@H](Oc1cc(O[C@H]2CNC(C)(C)C2)nc(-c2noc3c2CCC[C@@]32CCCc3sc(N)c(C#N)c32)n1)[C@@H]1CCCN1C (single isomer, unassigned) [II-8] |
| – | 0.5 | – | – | C[C@H](Oc1cc(Oc2nccs2)nc(-c2noc3c2CCC[C@@]32CCCc3sc(N)c(C#N)c32)n1)[C@@H]1CCCN1C [II-2] |
| 1.2 | 20.8 | – | – | C[C@H](Oc1cc(OCCO)nc(-c2noc3c2CCC[C@@]32CCCc3sc(N)c(C#N)c32)n1)[C@@H]1CCCN1C [II-6] |
| 0.8 | 38 | – | – | C[C@H](Oc1cc(N(C)CCN(C)C)nc(-c2noc3c2CCC[C@@]32CCCc3sc(N)c(C#N)c32)n1)[C@@H]1CCCN1C [II-20] |
| – | – | 2 | 4 | C[C@H](Oc1cc(Oc2nccs2)nc(-c2onc3c2CCC[C@@]32CCCc3sc(N)c(C#N)c32)n1)[C@@H]1CCCN1C [Example I-1] |
| 8.6 | 3.7 | – | – | C[C@H](Oc1cc(O[C@H]2CCOC2)nc(-c2noc3c2CCC[C@@]32CCCc3sc(N)c(C#N)c32)n1)[C@@H]1CCCN1C [II-4] |
